Test results published in patent US20030068615A1, “Polypeptides that bind HIV gp120 and related nucleic acids, antibodies, compositions, and methods of use” (priority 1999, published 2003).
Values joined by “and” are separate entries in the source; they are usually repeats but may differ in a detail not shown here. Equal values may be shown once. Read-outs that look alike come from different tables or passages of the source.

Biological target: HIV-1LAI envelope gp120 (Human immunodeficiency virus type 1 group M subtype B, UniProt P03377)
Assay type: binding
Conditions: for Counts per 20′ Average-background: CCR5 18-mer scan, radiolabeled HIV-1LAI gp120; for number of radioactive decays (counts) counted: human CD4 21-mer scan, empty control 2075; for Binding Results For Window Length (counts bound-background), 9 / Binding Results For Window Length (counts bound-background), 12 / Binding Results For Window Length (counts bound-background), 15 / Binding Results For Window Length (counts bound-background), 18: STRL33 amino terminus; for Binding Results For Window Length (counts bound-background), 9: 9-mer starting at the first residue of the printed sequence; for Binding Results For Window Length (counts bound-background), 12: 12-mer starting at the first residue of the printed sequence; for Binding Results For Window Length (counts bound-background), 15: 15-mer starting at the first residue of the printed sequence; for Binding Results For Window Length (counts bound-background), 18: 18-mer starting at the first residue of the printed sequence
[1] = Panel C, 15-mers and 18-mers of CD4, empty control 556
[2] = Panel A, 21-mers of CD4, empty control 515 and 617
[3] = STRL33 18-mer scan, background subtracted, first of two count columns
[4] = STRL33 18-mer scan, background subtracted, second of two count columns
[5] = CXCR4 18-mer scan, background subtracted, empty control 0
[6] = CXCR4 18-mer scan, empty control 412
[7] = Panel D, 9-mers and 12-mers of CD4, empty control […]
[8] = Panel B, 15-mers and 18-mers of CD4, empty control 575
[9] = Panel E, 9-mers and 12-mers of CD4, empty control 571
[10] = Panel F, sequential alanine replacements of CD4 polypeptides, duplicate series, empty control 569

QVEFSFPLAFTVEKLTGS
COUNTS of radiolabeled gp120 retained [1]: 736 counts

QVEFSFPLAFTVEKLTGSGEL
COUNTS of radiolabeled gp120 retained [2]: 741 counts

QVEFSFPLLA
Gp120 Bound (counts) (active CD4 fragments: 9-, 12-, 15-, 18- and 21-mers, background not subtracted): 1205 counts

QWDFGNTMCQLLTGLYFI [CCR5 segment 93-]
Counts per 20′ Average-background (background subtracted): 1019 counts per 20′

QWKSSEDNSKTFSASHNV
radioactive counts recorded in twenty minutes [3]: 464.5 counts
radioactive counts recorded in twenty minutes [4]: 533.5 counts

RCRHRRRQAERMSQIKRLLSE [human CD4 421-441]
number of radioactive decays (counts) counted: 2075 counts

RLHLSVADLLFVITLPFW [CXCR4 segment 77-94]
radioactive counts recorded in twenty minutes [5]: 136 counts
radioactive counts recorded in twenty minutes [6]: 548 counts

RMSQIKRLLSEKKTCQCPHRF
number of radioactive decays (counts) counted: 2020 counts

RNEKKRHRAVRLIFTIMI [CCR5 segment 225-]
Counts per 20′ Average-background (background subtracted): 23 counts per 20′

RNYLLVFFQKHIAKRFCK
Counts per 20′ Average-background (background subtracted): 65 counts per 20′

RRQAERMSQLKRLLSEKKTCQ [human CD4, printed 42E-446]
number of radioactive decays (counts) counted: 1607 counts

SCYCIIISKLSHSKGHQK
radioactive counts recorded in twenty minutes [5]: 259 counts
radioactive counts recorded in twenty minutes [6]: 671 counts

SDNYTEEMGSGDYDSMKE [CXCR4 segment 9-26]
radioactive counts recorded in twenty minutes [5]: 43 counts
radioactive counts recorded in twenty minutes [6]: 455 counts

SDTHLLQGQ
COUNTS of radiolabeled gp120 retained [7]: 526 counts

SDTHLLQGQSLT
COUNTS of radiolabeled gp120 retained [7]: 540 counts

SDTHLLQGQSLTLTL
COUNTS of radiolabeled gp120 retained [8]: 747 counts

SDTHLLQGQSLTLTLESP
COUNTS of radiolabeled gp120 retained [8]: 1260 counts

SDTYICEVE
COUNTS of radiolabeled gp120 retained [7]: 819 counts

SDTYICEVEDQK
COUNTS of radiolabeled gp120 retained [7]: 846 counts

SDTYICEVEDQKEEV
COUNTS of radiolabeled gp120 retained [8]: 993 counts

SDTYICEVEDQKEEVQLL
COUNTS of radiolabeled gp120 retained [8]: 870 counts

SEDNSKTFSASHNVEATS [STRL33 segment 321-338]
radioactive counts recorded in twenty minutes [3]: 524.5 counts

SEPCQKINVKQIAARLLP [CCR5 segment 17-34]
Counts per 20′ Average-background (background subtracted): −44 counts per 20′

SFHYTIMVTEAIAYLRAC [STRL33 segment 265-282]
radioactive counts recorded in twenty minutes [3]: 761.5 counts
radioactive counts recorded in twenty minutes [4]: 1033.5 counts

SFPLAFTVE
COUNTS of radiolabeled gp120 retained [9]: 619 counts

SFPLAFTVEKLT
COUNTS of radiolabeled gp120 retained [9]: 528 counts

SFPLAFTVEKLTGSG
COUNTS of radiolabeled gp120 retained [1]: 565 counts

SFPLAFTVEKLTGSGELW
COUNTS of radiolabeled gp120 retained [1]: 656 counts

SFPLAFTVEKLTGSGELWWQA
COUNTS of radiolabeled gp120 retained [2]: 2284 counts

SFWDSSQEEEQAFLQFSK
Binding Results For Window Length (counts bound-background), 9 (background subtracted): 304 counts
Binding Results For Window Length (counts bound-background), 12 (background subtracted): 303 counts
Binding Results For Window Length (counts bound-background), 15 (background subtracted): 969 counts
Binding Results For Window Length (counts bound-background), 18 (background subtracted): 4537 counts

SIFQQEAPERASSVYTRS [CCR5 segment 325-]
Counts per 20′ Average-background (background subtracted): 100 counts per 20′

SITEALAFFHCCLNPILY [CXCR4 segment 285-302]
radioactive counts recorded in twenty minutes [5]: 188 counts
radioactive counts recorded in twenty minutes [6]: 600 counts

SIVYKKEGE
COUNTS of radiolabeled gp120 retained [9]: 566 counts

SIVYKKEGEQVE
COUNTS of radiolabeled gp120 retained [9]: 543 counts

SIVYKKEGEQVEFSF
COUNTS of radiolabeled gp120 retained [1]: 651 counts

SIVYKKEGEQVEFSFPLA
COUNTS of radiolabeled gp120 retained [1]: 771 counts

SIVYKKEGEQVEFSFPLAFTV
COUNTS of radiolabeled gp120 retained [2]: 8165 counts

SIYTSDNYTEEMGSGDYD [CXCR4 segment 5-22]
radioactive counts recorded in twenty minutes [5]: 71 counts
radioactive counts recorded in twenty minutes [6]: 483 counts

SKGHQKRKALKTTVILIL [CXCR4 segment 229-246]
radioactive counts recorded in twenty minutes [5]: 140 counts
radioactive counts recorded in twenty minutes [6]: 552 counts

SKTFSASHNVEATSMFQL [STRL33 segment 325-342]
radioactive counts recorded in twenty minutes [3]: 1524.5 counts
radioactive counts recorded in twenty minutes [4]: 1239.5 counts

SLKIIFLVMAVFLLTQMP [STRL33 segment 229-246]
radioactive counts recorded in twenty minutes [3]: 612.5 counts
radioactive counts recorded in twenty minutes [4]: 853.5 counts

SLKILSKGKRGGHSSVST [CXCR4 segment 325-342]
radioactive counts recorded in twenty minutes [5]: 285 counts
radioactive counts recorded in twenty minutes [6]: 697 counts

SLKLENKEAKVSKREKAVWVL [human CD4 341-361]
number of radioactive decays (counts) counted: 1663 counts

SQEEHQAFLQFS
Binding Results For Window Length (counts bound-background), 9 (background subtracted): 647 counts
Binding Results For Window Length (counts bound-background), 12 (background subtracted): 7512 counts

SQKEGLHYTCSSHFPYSQ [CCR5 segment 169-]
Counts per 20′ Average-background (background subtracted): 304 counts per 20′

SQYQFWKNFQTLKIVILG [CCR5 segment 185-]
Counts per 20′ Average-background (background subtracted): 1572 counts per 20′

SRGSSLKILSKGKRGGHS [CXCR4 segment 321-338]
radioactive counts recorded in twenty minutes [5]: 169 counts
radioactive counts recorded in twenty minutes [6]: 581 counts

SSFNDSSQEEHQAFLQFS [STRL33 segment 13-30]
radioactive counts recorded in twenty minutes [3]: 2689.5 counts
radioactive counts recorded in twenty minutes [4]: 2757.5 counts
Binding Results For Window Length (counts bound-background), 9 (background subtracted): 243 counts
Binding Results For Window Length (counts bound-background), 12 (background subtracted): 277 counts
Binding Results For Window Length (counts bound-background), 15 (background subtracted): 902 counts
Binding Results For Window Length (counts bound-background), 18 (background subtracted): 6038 counts

SSIVYKKEG
COUNTS of radiolabeled gp120 retained [9]: 515 counts

SSIVYKKEGEQV
COUNTS of radiolabeled gp120 retained [9]: 615 counts

SSIVYKKEGEQVEFS
COUNTS of radiolabeled gp120 retained [1]: 558 counts

SSIVYKKEGEQVEFSFPL
COUNTS of radiolabeled gp120 retained [1]: 756 counts

SSIVYKKEGEQVEFSFPLAFT
COUNTS of radiolabeled gp120 retained [2]: 28068 counts

SSQEEEQAFLQFSKV
Binding Results For Window Length (counts bound-background), 9 (background subtracted): 287 counts
Binding Results For Window Length (counts bound-background), 12 (background subtracted): 4455 counts
Binding Results For Window Length (counts bound-background), 15 (background subtracted): 4732 counts

SSSKSWITFDLKNKEVSVKRV [human CD4 246-266]
number of radioactive decays (counts) counted: 1761 counts

STPVQPMALIVLGGVAGLLLF [human CD4 391-411]
number of radioactive decays (counts) counted: 2527 counts

SVADLLFVITLPFWAVDA [CXCR4 segment 81-98]
radioactive counts recorded in twenty minutes [5]: 253 counts
radioactive counts recorded in twenty minutes [6]: 665 counts

SVITWVVAVFASLPGIIF
Counts per 20′ Average-background (background subtracted): 46 counts per 20′

SVYTRSTGEQEISVGL [CCR5 segment 337-]
Counts per 20′ Average-background (background subtracted): 47 counts per 20′

TALLQGQSLTLTLES
COUNTS of radiolabeled gp120 retained [10]: 6931 counts and 5012 counts

TANSDTHLL
COUNTS of radiolabeled gp120 retained [7]: 554 counts

TANSDTHLLQGQ
COUNTS of radiolabeled gp120 retained [7]: 549 counts

TANSDTHLLQGQSLT
COUNTS of radiolabeled gp120 retained [8]: 513 counts

TANSDTHLLQGQSLTLTL
COUNTS of radiolabeled gp120 retained [8]: 891 counts

TCITVDRFIVVVKATKAY
radioactive counts recorded in twenty minutes [3]: 89.5 counts
radioactive counts recorded in twenty minutes [4]: 346.5 counts

TCSSHFPYSQYQFWKNFQ [CCR5 segment 177-]
Counts per 20′ Average-background (background subtracted): 367 counts per 20′

TCTVLQNQKKVEFKI
COUNTS of radiolabeled gp120 retained [1]: 510 counts

TCTVLQNQKKVEFKIDIV
COUNTS of radiolabeled gp120 retained [1]: 571 counts

TDIYLLNLAISDLFFLLT [CCR5 segment 65-82]
Counts per 20′ Average-background (background subtracted): 38 counts per 20′

TDKYRLHLSVADLLFVIT [CXCR4 segment 73-90]
radioactive counts recorded in twenty minutes [5]: 92 counts
radioactive counts recorded in twenty minutes [6]: 504 counts

TEAIAYLRACLNPVLYAF [STRL33 segment 273-290]
radioactive counts recorded in twenty minutes [3]: 604.5 counts
radioactive counts recorded in twenty minutes [4]: 480.5 counts

TEEMGSGDYDSMKEPCFR [CXCR4 segment 13-30]
radioactive counts recorded in twenty minutes [5]: 41 counts
radioactive counts recorded in twenty minutes [6]: 453 counts

TELLQGASLTLTLES
COUNTS of radiolabeled gp120 retained [10]: 4238 counts

TGLYFIGFFSGIFFIILL
Counts per 20′ Average-background (background subtracted): 80 counts per 20′

TGSGELWWQ
COUNTS of radiolabeled gp120 retained [9]: 507 counts
